Assay results taken from patent US20250051526A1, “POLYMERS COMPRISING GLYCOLIPIDS AND METHODS FOR PRODUCING AND USING THE SAME” (priority 2021, published 2025).

Test: binding preference from monorhamnolipid-metal conditional stability constants for 26 metals
Details: metals of environmental concern (e.g., Cd, Pd, Hg) versus common soil and water cations
Description: They are considered “green” molecules due to their natural products from bacteria (e.g., Pseudomonas aeruginosa), biodegradability, and low toxicity. The present inventors have experimentally determined the monorhamnolipid-metal conditional stability constants ([…]) for 26 metals of interest.

binding preference for metals of environmental concern over common soil and water cations: 6-8 orders of magnitude
Substance: monorhamnolipid
